Results reported in publication PMC6271338, “Synthesis and Cytotoxic Evaluation of Alkoxylated Chalcones” (Molecules, 2014).

What was measured:
[1] = Cytotoxicity (SRB) against non-tumoral HMLE cells; assay type: cell-based, human; conditions: human, HMLE cells (non-tumoral human mammary epithelial cells); increasing concentrations up to 100 μM; mean ± SD of at least three independent experiments; read-out: Normal Human Cell Lines, CC50, HMLE
Method: (§1) All compounds were also evaluated for their cytotoxic activity against two non-tumoral human cell lines named human mammary epithelial cell (HMLE) and L02 (a human liver cell line) in Table 2 and SI values between the CC50 in non-tumoral cell lines and IC50 in tumoral cells calculated.
(§2) HepG2 and MCF7 cells were grown in the Eagle’s minimum essential medium with Earle’s balanced salts (MEM-EBSS) medium, HeLa, A549 and L02 cells were grown in Dulbecco’s Modified Eagle Media (DMEM), SW1990 cells were grown in RPMI-1640 medium, and HMLE cell were grown in DMEM/F-12 medium. […]
(§3) Cells were seeded into 96-well plates (4000 cells/well) and incubated at 37 °C in a humidified 5% CO2 atmosphere. After 24 h, the cells were treated with different concentrations of the compounds for 48 h in triplicate to generate dose-response curves. Cell viability was evaluated using the sulforhodamine B (SRB) assay as previous described. […] Etoposide was used as the positive control.

SW1990 cells = assay: In vitro anti-proliferative SRB assay, SW1990; assay type: cell-based, human; conditions: for IC50: Homo sapiens, SW1990, increasing concentrations up to 30 μM, mean ± SD of at least three independent experiments; for SI (CC50 HMLE/IC50 SW1990) / SI (CC50 L02/IC50 SW1990): selectivity index; for SI (CC50 HMLE/IC50 SW1990): HMLE vs SW1990; for SI (CC50 L02/IC50 SW1990): L02 vs SW1990
Method: as §2
(§4) Cells were seeded into 96-well plates (4000 cells/well) and incubated at 37 °C in a humidified 5% CO2 atmosphere. After 24 h, the cells were treated with different concentrations of the compounds for 48 h in triplicate to generate dose-response curves. Cell viability was evaluated using the sulforhodamine B (SRB) assay as previous described.

HeLa cells = assay: In vitro anti-proliferative SRB assay, HeLa; assay type: cell-based, human; conditions: for IC50: Homo sapiens, HeLa, increasing concentrations up to 30 μM, mean ± SD of at least three independent experiments; for SI (CC50 HMLE/IC50 Hela) / SI (CC50 L02/IC50 Hela): selectivity index; for SI (CC50 HMLE/IC50 Hela): HMLE vs HeLa; for SI (CC50 L02/IC50 Hela): L02 vs HeLa
Method: as §2, §4

HepG2 cells = assay: In vitro anti-proliferative SRB assay, HepG2; assay type: cell-based, human; conditions: for IC50: HepG2, increasing concentrations up to 30 μM, mean ± SD of at least three independent experiments; for SI (CC50 HMLE/IC50 HepG2) / SI (CC50 L02/IC50 HepG2): selectivity index; for SI (CC50 HMLE/IC50 HepG2): HMLE vs HepG2; for SI (CC50 L02/IC50 HepG2): L02 vs HepG2
Method: as §2, §4

MCF-7 cells = assay: In vitro anti-proliferative SRB assay, MCF-7; assay type: cell-based, human; conditions: for IC50: Homo sapiens, MCF7, increasing concentrations up to 30 μM, mean ± SD of at least three independent experiments; for SI (CC50 HMLE/IC50 MCF7) / SI (CC50 L02/IC50 MCF7): selectivity index; for SI (CC50 HMLE/IC50 MCF7): HMLE vs MCF7; for SI (CC50 L02/IC50 MCF7): L02 vs MCF7
Method: as §2, §4

A549 cells = assay: In vitro anti-proliferative SRB assay, A549; assay type: cell-based, human; conditions: for IC50: Homo sapiens, A549, increasing concentrations up to 30 μM, mean ± SD of at least three independent experiments; for SI (CC50 HMLE/IC50 A549) / SI (CC50 L02/IC50 A549): selectivity index; for SI (CC50 HMLE/IC50 A549): HMLE vs A549; for SI (CC50 L02/IC50 A549): L02 vs A549
Method: as §2, §4

[2] = Cytotoxicity (SRB) against non-tumoral L02 cells; assay type: cell-based, human; conditions: human, L02 cells (non-tumoral human liver cell line); increasing concentrations up to 100 μM; mean ± SD of at least three independent experiments; read-out: Normal Human Cell Lines, CC50, L02
Method: as §1, §2, §3

melting point [°C]	IC50 (SW1990 cells) [µM]	IC50 (HeLa cells) [µM]	IC50 (HepG2 cells; Homo sapiens) [µM]	IC50 (MCF-7 cells) [µM]	IC50 (A549 cells) [µM]	Structure (SMILES)	CC50 at 48 h [1] [µM]	SI (CC50 HMLE/IC50 SW1990) (SW1990 cells)	SI (CC50 L02/IC50 SW1990) (SW1990 cells)	SI (CC50 HMLE/IC50 Hela) (HeLa cells)	SI (CC50 L02/IC50 Hela) (HeLa cells)	SI (CC50 HMLE/IC50 HepG2) (HepG2 cells)	SI (CC50 L02/IC50 HepG2) (HepG2 cells)	SI (CC50 HMLE/IC50 MCF7) (MCF-7 cells)	SI (CC50 L02/IC50 MCF7) (MCF-7 cells)	SI (CC50 HMLE/IC50 A549) (A549 cells)	SI (CC50 L02/IC50 A549) (A549 cells)	CC50 at 48 h [2] [µM]	inhibition at 10 µM (HepG2 cells; Homo sapiens, HepG2 cells, 10 μM, SRB assay, mean ± SD of three independent experiments) [%]
142.1 to 143.4	26.16 ± 0.08	17.6 ± 2.01	18.6 ± 1.24	29.6 ± 2.13	27.6 ± 0.58	COc1cccc(OC)c1/C=C/C(=O)c1ccc(Cl)c(Cl)c1 [b38, (E)-1-(3,4-Dichlorophenyl)-3-(2,6-dimethoxyphenyl)prop-2-en-1-one]	28.3 ± 3.74	1.1	>3.8	1.6	>5.7	1.5	>5.4	1.0	>3.4	1.0	>3.6	> 100	–
111.1 to 112.7	15.4 ± 0.83	15.7 ± 1.09	11.7 ± 0.18	30.4 ± 0.71	> 30	COc1cccc(OC)c1/C=C/C(=O)c1ccc(Cl)cc1Cl [b37, (E)-1-(2,4-Dichlorophenyl)-3-(2,6-dimethoxyphenyl)prop-2-en-1-one]	19.8 ± 1.44	1.3	>6.5	1.3	>6.4	1.7	>8.5	0.7	>3.3	<0.7	–	> 100	–
114.2 to 115.9	16.1 ± 0.32	13.4 ± 0.74	7.77 ± 0.08	10.7 ± 0.38	8.64 ± 0.31	COc1cccc(OC)c1/C=C/C(=O)c1ccccc1O [b24, (E)-1-(2-Hydroxyphenyl)-3-(2,6-dimethoxyphenyl)prop-2-en-1-one]	8.96 ± 0.44	0.6	1.5	0.7	1.8	1.2	3.1	0.8	2.3	1.0	2.8	24.2 ± 2.71	–

Continued, compound first:

Structure (SMILES)	melting point [°C]	IC50 (SW1990 cells) [µM]	IC50 (HeLa cells) [µM]	IC50 (HepG2 cells; Homo sapiens) [µM]	IC50 (MCF-7 cells) [µM]	IC50 (A549 cells) [µM]	CC50 at 48 h [1] [µM]	SI (CC50 HMLE/IC50 SW1990) (SW1990 cells)	SI (CC50 L02/IC50 SW1990) (SW1990 cells)	SI (CC50 HMLE/IC50 Hela) (HeLa cells)	SI (CC50 L02/IC50 Hela) (HeLa cells)	SI (CC50 HMLE/IC50 HepG2) (HepG2 cells)	SI (CC50 L02/IC50 HepG2) (HepG2 cells)	SI (CC50 HMLE/IC50 MCF7) (MCF-7 cells)	SI (CC50 L02/IC50 MCF7) (MCF-7 cells)	SI (CC50 HMLE/IC50 A549) (A549 cells)	SI (CC50 L02/IC50 A549) (A549 cells)	CC50 at 48 h [2] [µM]	inhibition at 10 µM (HepG2 cells; Homo sapiens, HepG2 cells, 10 μM, SRB assay, mean ± SD of three independent experiments) [%]
COc1cc(C(=O)/C=C/c2c(OC)cccc2OC)ccc1OCc1ccccc1 [b15, (E)-1-(4-(Benzyloxy)-3-methoxyphenyl)-3-(2,6-dimethoxyphenyl)prop-2-en-1-one]	112.8 to 114.1	> 30	> 30	> 30	> 30	> 30	> 100	–	–	–	–	–	–	–	–	–	–	> 100	–
COc1ccc(C(=O)/C=C/c2cc(OC)cc(OC)c2)cc1 [a16, (E)-1-(4-Methoxyphenyl)-3-(3,5-dimethoxyphenyl)prop-2-en-1-one]	87.6 to 89.1	17.8 ± 0.07	12.4 ± 0.34	9.2 ± 0.31	23.1 ± 0.79	21.2 ± 0.55	3.28 ± 0.31	0.2	0.5	0.3	0.7	0.4	1.0	0.1	0.4	0.2	0.4	8.87 ± 1.83	70.6 ± 2
CCOc1ccc(C(=O)/C=C/c2c(OC)cccc2OC)cc1 [b10, (E)-1-(4-Ethoxyphenyl)-3-(2,6-dimethoxyphenyl)prop-2-en-1-one]	99 to 101.2	19.5 ± 0.23	14.4 ± 0.15	10.9 ± 0.46	19.8 ± 0.69	22.7 ± 0.57	13.8 ± 3.77	0.7	1.9	1.0	2.6	1.3	3.4	0.7	1.9	0.6	1.6	36.7 ± 3.41	–
